Assay results from BigSolDB 2.1.

Conditions: in water

solubility (mole fraction) (278.15 K)	solubility (mole fraction) (283.15 K)	solubility (mole fraction) (288.15 K)	solubility (mole fraction) (293.15 K)	solubility (mole fraction) (298.15 K)	solubility (mole fraction) (303.15 K)	solubility (mole fraction) (308.15 K)	solubility (mole fraction) (313.15 K)	solubility (mole fraction) (318.15 K)	solubility (mole fraction) (323.15 K)	solubility (mole fraction) (328.15 K)	solubility (mole fraction) (333.15 K)	Structure (SMILES)
0.134	0.163	0.195	0.232	0.276	0.315	0.371	0.4	0.45	0.486	0.527	0.568	CCC(N)=O
0.0163	0.021	0.026	0.0331	0.0442	0.0575	0.0724	0.0895	0.109	0.131	0.152	0.175	CCCC(N)=O
